In article PMC2736375, “Solution Behavior and Activity of a Halophilic Esterase under High Salt Concentration” (PLoS ONE, 2009):

Molecular target: T1, LipC (Haloarcula marismortui, UniProt Q5V5N6)
T1 construct: full-length, N- and C-terminal 6xHis tags, pET28a (NheI/HindIII), E. coli BL21(DE3); theoretical 34 kDa, ~50 kDa on SDS-PAGE; no signal peptide; catalytic triad Ser128, Asp224, His254; active as free monomers, mixed aggregates
T1 sequence (Q5V5N6 1-327): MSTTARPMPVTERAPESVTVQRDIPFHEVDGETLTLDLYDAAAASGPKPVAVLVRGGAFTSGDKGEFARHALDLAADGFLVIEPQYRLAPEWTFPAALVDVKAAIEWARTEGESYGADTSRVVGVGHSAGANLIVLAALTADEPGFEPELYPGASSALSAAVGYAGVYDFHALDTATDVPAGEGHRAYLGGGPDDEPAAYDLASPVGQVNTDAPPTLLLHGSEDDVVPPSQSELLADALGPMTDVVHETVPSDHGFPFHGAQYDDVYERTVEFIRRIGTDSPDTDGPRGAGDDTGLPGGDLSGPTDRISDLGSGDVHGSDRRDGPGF
Assay: p-nitrophenol release at […] nm
Type: biochemical
Conditions: 0.5 mM substrate, 50 mM Tris-HCl pH 8.5, 45 °C, 3.4 M NaCl

Compound | p-nitrophenol release at 405 nm
CC(=O)Oc1ccc([N+](=O)[O-])cc1 [p-NP-C2, p-nitrophenyl acetate] | The highest specific activity of LipC was found towards the short chain p-nitrophenyl esters
CCC(=O)Oc1ccc([N+](=O)[O-])cc1 [p-NP-C3] | short chain p-nitrophenyl esters of p-NP-C2 and p-NP-C3
